Values quoted from earlier work as cited in patent US20060210492A1 (priority 2005, published 2006).

Q: For `CO[C@H]1/C=C/O[C@@]2(C)Oc3c(C)c(O)c4c(O)c(c5c(nc6cc(C)ccn65)c4c3C2=O)NC(=O)/C(C)=C\C=C\[C@H](C)[C@H](O)[C@@H](C)[C@@H](O)[C@@H](C)[C@H](OC(C)=O)[C@@H]1C` [rifaximin, (2S,16Z,18E,20S,21S,22R,23R,24R,25S,26S,27S,28E)-5,6,21,23,25-pentahydroxy-27-methoxy-2,4,11,16,20,22,24,26-octamethyl-2,7-(epoxypentadeca-[1,11,13]trienimino)benzofuro[4,5-e]pyrido[1,2-a]-benzimidazole-1,15(2H)-dione,25-acetate], which “solubility in water” value is on record?
A: Its value is “practically insoluble”.
